The text below walks through data of patent US20210220374A1, “METHODS OF TREATING TE[…]” (Clarus Therapeutics, Inc., priority 2013, published 2021).

Bounds are passed on as bounds.

A short description of data set [1]: Probability model of serum T Cavg and Cmax distributions (titration dosing modeling). On the set-up: species or system hypogonadal men. The conditions noted are these: nominal model parameter, 200 mg T BID as TU, normal distribution. From the text: The fractions of the modeled patient population having their serum T Cavg and Cmax values falling within and/or outside of pre-specified limits and categories, as predicted from the probability model, were monitored and tabulated. The categories of interest were those identified by the FDA in its proposed guidelines for safe and effective hormone replacement therapy, as summarized in Table 2.
(§1) The probability model was based on the pharmacokinetic results obtained from the hypogonadal patient population that participated in the two multi-dose TU treatments in study LOT-A. As noted previously, 29 hypogonadal males participated in the study, 28 of them completed Treatment Period 1 (300 mg T, as TU, BID) and 24 of them completed Treatment Period 3 (200 mg T, as TU, BID).
Initially, the distribution of the calculated values of Cavg in the treated population was characterized by a mean and standard deviation assuming that the distribution fit either a normal distribution, or a log-normal distribution. […]
Second, a relationship was identified between serum T Cavg and Cmax using linear regression, such that given an hypothesized Cavg value, an expected value of Cmax could be determined (FIG. 5). […]
Fourth, the fraction of a treated population that fell within one of the 7 bins identified in Table 1 was calculated by: • 1. […]

A short description of data set [2]: Seven-day repeat-dose pharmacokinetic study (study LOT-A), TU BID. As to conditions: for Baseline-corrected Cavg / Tmax: serum T. The data set is classed as in vivo, hypogonadal men. The procedure:
as §1
Formulation B was studied for its acute tolerability and steady-state serum pharmacokinetic profile at two doses administered twice-daily to hypogonadal men. The study was designed as an open-label, repeat dose, cross-over, pharmacokinetic study (with food effect examined in one arm).
Twenty nine (29) hypogonadal men were enrolled after giving written informed consent, 24 of which completed the study. Each subject who completed the study received a regimen of Formulation B as follows: […]
1. 7 daily doses of 600 mg T as TU BID (300 mg/dose), i.e., 3 capsules/dose 2. 8 daily doses of 400 mg T as TU BID (200 mg/dose)
Doses were administered as capsules to subjects 30 minutes after initiation of meals (breakfast and dinner), except for Day 8, when the morning dose was administered fasting.

A short description of data set [3]: Example 4 food effects study of Formulation B. The data set is classed as in vivo, hypogonadal men. Here is the method: Subjects were randomized to receive the drug in the fasting state or 30 minutes after consumption of meals containing ˜800 calories with specific amounts of fat (wt %): very low fat (6-10%); low fat (20%); “normal” diet fat (30%); or high fat (50%). The “normal” diet was, a priori, established as the comparator (i.e., reference diet) for purposes of statistical comparisons. Serial blood samples were collected for a total of 24 hours after drug administration to determine serum testosterone and dihydrotestosterone (DHT) levels by liquid chromatography-mass spectroscopy (LC/MS/MS).

In the case of `CCCCCCCCCCC(=O)O[C@H]1CC[C@H]2[C@@H]3CCC4=CC(=O)CC[C@]4(C)[C@H]3CC[C@]12C` [TU, testosterone undecanoate], the “Mean Cavg (CV)” value in data set [1] is listed as 520 (39%). The “Decrease in serum T exposures (Cmax and AUC)” value in data set [2] (fasting conditions vs meal) was “greater than 50%”. For the same compound, in data set [2] (in vivo), the “DHT concentrations as percent of T concentrations” value was 11-34%. The “Pre-dose steady-state estradiol concentrations” value in data set [2] (in vivo) fell in the range of 20 to 30 pg/mL. Besides, the “Mean baseline T concentration (endogenous T production)” value in data set [2] (prior to Treatment Period 2, after washout) is recorded as 152 ng/dL; in data set [2] (prior to Treatment Period 3, after washout), 139 ng/dL; in data set [2] (prior to Treatment Period 4, after washout), 145 ng/dL. Further, the “Baseline-corrected Cavg” value was determined as 379 ± 255 in data set [2] (200 mg BID) and 586 ± 330 in data set [2] (300 mg BID). Also, the time of peak concentration (Tmax) in data set [2] (300 mg BID, AM dose) came out at 4.5 ± 2.1 h; in data set [2] (300 mg BID, PM dose), 17.9 ± 2.6 h. Also, the “Subjects with serum T Cavg in the eugonadal range over 24 hours” value in data set [2] (simulated 24-hour profile from 12-hour data, 200 mg T (as TU) BID, fed) was 77%. The “Difference in serum T response” value in data set [3] (high-fat vs normal-fat meal) is below 30%. Further, the “90% confidence interval, serum T PK parameters” value in data set [3] (low-fat vs normal fat diet, single 300 mg T dose) is 85-125%.

In general, Tmax refers to the time at which the peak concentration occurs.
